Measurements published in paper PMC5007854, “β-Nitrostyrenes as Potential Anti-leishmanial Agents” (Frontiers in Microbiology, 2016).
Converted amounts (≈) assume the structure as drawn. Where two headings read alike, the source gives them in different places.

Key:
[1] = tested on: Candida glabrata ATCC 90030; assay: Broth microdilution antifungal susceptibility (MIC/MFC); format: cell-based; conditions: Nakaseomyces glabratus; for MIC: broth microdilution, 35°C, 48 h, read-out: MIC, Cg ATCC 90030
Source text: (§1) One reference each of the following species was used for their in vitro susceptibility to β-nitrostyrene in this study: Staphylococcus aureus ATCC 29213, Staphylococcus epidermidis ATCC 14990, Escherichia coli ATCC 25922, Pseudomonas aeruginosa ATCC 27853, Candida albicans ATCC 90028, Candida glabrata ATCC 90030, Aspergillus fumigatus ATCC 16424 and Aspergillus niger ATCC 16404. These strains were procured from the American Type Culture Collection (ATCC, Manassas, VA, USA).
(§2) The antibacterial and antifungal activities of the β-nitrostyrenes were performed by broth microdilution methods as per the guidelines of Clinical and Laboratory Standard Institute (Wayne, [1998], [2008a],[b],[c]) by using Mueller-Hinton broth (MHB; Becton-Dickinson, Cockeysville, MD, USA) supplemented with calcium (25 mg/L) and magnesium (12.5 mg/L) for bacterial strains while as RPMI 1640 medium with L-glutamine and without sodium bicarbonate, buffered to pH 7.0 with 0.165 M 3-(N-morpholino) propanesulfonic acid (MOPS; both from Sigma) was used for fungal strains. Stock solutions were prepared in 100% dimethyl sulfoxide (DMSO; Sigma; distilled water was used for ciprofloxacin), with a final DMSO concentration of 1% (vol. per vol.) and two-fold serial dilutions were prepared in media in amounts of 100 μL per well in 96-well U-bottom microtiter plates (Tarsons, Kolkata, India) to yield twice the final concentration required for testing, which ranged from 64 to 0.12 μg/mL for β-nitrostyrenes and 16 to 0.03 μg/mL for ciprofloxacin as well as amphotericin B. Stock inoculum suspensions of the bacteria, Candida species and Aspergillus species were prepared in sterile normal saline (0.85%) containing 0.05% polysorbate 20 (NST) from overnight (3 to 5-day old for Aspergillus species) strains grown on Trypticase soy agar (TSA; Becton-Dickinson) and potato dextrose agar (Difco Laboratories, Detroit, MI, USA) respectively at 35°C. Inocula were verified for each assay by plating onto agar plates for colony enumeration. These suspensions were further diluted in the respective test medium and a 100 μl volume of this diluted inoculum was added to each well of the plate, resulting in a final inoculum concentration of approximately 5 × 10^5 CFU/mL for bacter1ia, (Wayne, [2008a]) approximately 2.5 × 10^4 CFU/ml for Candida species (Pfaller et al., [2004]) while as 0.4 × 10^4 to 5 × 10^4 CFU/mL for Aspergillus species (Wayne, [2008c]). Untreated growth control, vehicle control (DMSO) and sterility control wells were included for each isolate tested. Ciprofloxacin and amphotericin B served as the standard drug controls for bacterial and fungal strains, respectively. The microtiter plates were incubated at 35°C for 24 h for bacterial strains and 48 h for fungal strains. The plates were read visually and the minimum inhibitory concentration (MIC) was defined as the lowest concentration of test sample that prevented visible growth with respect to the growth control.
(§3) The minimum bactericidal concentration (MBC) and minimum fungicidal concentration (MFC) were determined by plating 100 μl volumes on agar plates from the wells showing no visible growth (clear MIC well). The plates were incubated as described above in MIC measurements. […] All experiments were conducted twice in duplicates on separate occasions with freshly prepared inoculums and stock solutions.

[2] = tested on: Aspergillus fumigatus ATCC 16424; assay: as above; format: cell-based; conditions: for MIC / MFC: Aspergillus fumigatus
Source text: as §1, §2, §3

[3] = tested on: Candida albicans ATCC 90028; assay: as above; format: cell-based; conditions: for MIC / MFC: Candida albicans
Source text: as §1, §2, §3

[4] = tested on: Aspergillus niger ATCC 16404; assay: as above; format: cell-based; conditions: for MIC / MFC: Aspergillus niger
Source text: as §1, §2, §3

[5] = tested on: Staphylococcus aureus ATCC 29213; assay: Broth microdilution antibacterial susceptibility (MIC/MBC); format: cell-based; conditions: Staphylococcus aureus; for MIC: broth microdilution, 35°C, 24 h, read-out: MIC, Sa ATCC 29213
Source text: as §1, §2, §3

[6] = tested on: Staphylococcus epidermidis ATCC 14990; assay: as above; format: cell-based; conditions: for MIC / MBC: Staphylococcus epidermidis
Source text: as §1, §2, §3

[7] = tested on: Pseudomonas aeruginosa ATCC 27853; assay: as above; format: cell-based; conditions: for MIC / MBC: Pseudomonas aeruginosa
Source text: as §1, §2, §3

[8] = tested on: Escherichia coli ATCC 25922; assay: as above; format: cell-based; conditions: for MIC / MBC: Escherichia coli
Source text: as §1, §2, §3

[9] = tested on: L. donovani promastigotes; assay: Anti-leishmanial screening at 100 μM, parasite viability by microscopy; format: cell-based, Leishmania donovani; conditions: 100 μM, 72 h, phase contrast microscope
Method: L. donovani parasites (MHOM/IN/83/AG83) were maintained in vivo in BALB/c mice. Promastigotes were routinely cultured at 22°C in medium M199 supplemented with 10% heat inactivated fetal bovine serum (FBS, HiMedia Laboratories, Mumbai, India), penicillin 100 (IU/ml), streptomycin (100 μg/ml). Log phase promastigotes were sub-cultured every 72–96 h, the inoculum being 2 × 10^6 cells/ml (Afrin et al., [2002]).
Nitrostyrine series were screened for their antileishmanial activity against L. donovani promastigotes in vitro. Promastigotes of L. donovani (2 × 10^6 cells/mL) in M199 medium were incubated at 22°C for 72 h with each compound at a concentration of 100 μM. Amphotericin B (AmB) served as reference drug, 0.2% DMSO was used as solvent control. Parasites with media alone were taken as control. Parasite viability was determined microscopically after 72 h (Islamuddin et al., [2014b]).

[10] = broth microdilution, 35°C, 48 h
[11] = broth microdilution, 35°C, 24 h
[12] = ATCC90030, ≥99.9% reduction of original inoculum, read-out: MFC, Cg ATCC 90030
[13] = ATCC16424, 48 h, broth microdilution, 35°C, 48 h, read-out: MIC, Af ATCC 16424
[14] = ATCC16424, ≥99.9% reduction of original inoculum, read-out: MFC, Af ATCC 16424
[15] = ATCC90028, 48 h, broth microdilution, 35°C, 48 h, read-out: MIC, Ca ATCC 90028
[16] = ATCC90028, ≥99.9% reduction of original inoculum, read-out: MFC, Ca ATCC 90028
[17] = ATCC16404, 48 h, broth microdilution, 35°C, 48 h, read-out: MIC, An ATCC 16404
[18] = ATCC16404, ≥99.9% reduction of original inoculum, read-out: MFC, An ATCC 16404
[19] = ATCC29213, ≥99.9% reduction of original inoculum, read-out: MBC, Sa ATCC 29213
[20] = ATCC14990, 24 h, broth microdilution, 35°C, 24 h, read-out: MIC, Se ATCC 14990
[21] = ATCC14990, ≥99.9% reduction of original inoculum, read-out: MBC, Se ATCC 14990
[22] = ATCC27853, 24 h, broth microdilution, 35°C, 24 h, read-out: MIC, Pa ATCC 27853
[23] = ATCC27853, ≥99.9% reduction of original inoculum, read-out: MBC, Pa ATCC 27853
[24] = ATCC25922, 24 h, broth microdilution, 35°C, 24 h, read-out: MIC, Ec ATCC 25922
[25] = ATCC25922, ≥99.9% reduction of original inoculum, read-out: MBC, Ec ATCC 25922

O=[N+]([O-])/C=C/c1ccc([N+](=O)[O-])cc1 [Compound 7, 1-nitro-4-((E)-2-nitrovinyl) benzene]
MFC ([1]; ATCC90030, read-out: MFC, Cg ATCC 90030): 4 µg/mL (≈ 20.6 µM) | MIC ([2]; ATCC16424, 48 h, read-out: MIC, Af ATCC 16424, broth microdilution, 35°C, 48 h): 4 to 8 µg/mL (≈ 20.6 to 41.2 µM) | MFC ([2]; ATCC16424, read-out: MFC, Af ATCC 16424): 4 µg/mL (≈ 20.6 µM) | MIC, Af ATCC 16424 [2, 10]: 4 µg/mL (≈ 20.6 µM) | MIC ([3]; ATCC90028, 48 h, read-out: MIC, Ca ATCC 90028, broth microdilution, 35°C, 48 h): 4 to 32 µg/mL (≈ 20.6 to 165 µM) | MFC ([3]; ATCC90028, read-out: MFC, Ca ATCC 90028): 4 µg/mL (≈ 20.6 µM) | MIC, Ca ATCC 90028 [3, 10]: 4 µg/mL (≈ 20.6 µM) | MIC ([4]; ATCC16404, 48 h, read-out: MIC, An ATCC 16404, broth microdilution, 35°C, 48 h): 2 to 4 µg/mL (≈ 10.3 to 20.6 µM) | MFC ([4]; ATCC16404, read-out: MFC, An ATCC 16404): 2 µg/mL (≈ 10.3 µM) | MIC, An ATCC 16404 [4, 10]: 2 µg/mL (≈ 10.3 µM) | MBC ([5]; ATCC29213, read-out: MBC, Sa ATCC 29213): 8 µg/mL (≈ 41.2 µM) | MIC ([6]; ATCC14990, 24 h, read-out: MIC, Se ATCC 14990, broth microdilution, 35°C, 24 h): 2 to 16 µg/mL (≈ 10.3 to 82.4 µM) | MBC ([6]; ATCC14990, read-out: MBC, Se ATCC 14990): 4 µg/mL (≈ 20.6 µM) | MIC, Se ATCC 14990 [6, 11]: 4 µg/mL (≈ 20.6 µM) | MIC ([7]; ATCC27853, 24 h, read-out: MIC, Pa ATCC 27853, broth microdilution, 35°C, 24 h): 16 to 32 µg/mL (≈ 82.4 to 165 µM) | MBC ([7]; ATCC27853, read-out: MBC, Pa ATCC 27853): 32 µg/mL (≈ 165 µM) | MIC, Pa ATCC 27853 [7, 11]: 16 µg/mL (≈ 82.4 µM) | MIC ([8]; ATCC25922, 24 h, read-out: MIC, Ec ATCC 25922, broth microdilution, 35°C, 24 h): 16 to 32 µg/mL (≈ 82.4 to 165 µM) | MBC ([8]; ATCC25922, read-out: MBC, Ec ATCC 25922): 32 µg/mL (≈ 165 µM) | MIC, Ec ATCC 25922 [8, 11]: 16 µg/mL (≈ 82.4 µM) | Parasite viability after treatment [9]: All the parasites were found to be dead

O=[N+]([O-])/C=C/c1ccc(O)cc1 [Compound 16, 4-((E)-2-nitrovinyl) phenol]
MIC ([1]; ATCC90030, 48 h): 16 µg/mL (≈ 96.9 µM) | MFC [1, 12]: 16 µg/mL (≈ 96.9 µM) | MIC [2, 13]: 16 µg/mL (≈ 96.9 µM) | MFC [2, 14]: 16 µg/mL (≈ 96.9 µM) | MIC [3, 15]: 32 µg/mL (≈ 194 µM) | MFC [3, 16]: 32 µg/mL (≈ 194 µM) | MIC [4, 17]: 8 µg/mL (≈ 48.4 µM) | MFC [4, 18]: 16 µg/mL (≈ 96.9 µM) | MIC ([5]; ATCC29213, 24 h): 64 µg/mL (≈ 388 µM) | MBC [5, 19]: > 64 µg/mL | MIC [6, 20]: 64 µg/mL (≈ 388 µM) | MBC [6, 21]: 64 µg/mL (≈ 388 µM) | MIC [7, 22]: > 64 µg/mL | MBC [7, 23]: > 64 µg/mL | MIC [8, 24]: 64 µg/mL (≈ 388 µM) | MBC [8, 25]: > 64 µg/mL

O=[N+]([O-])/C=C/c1cccc(O)c1 [Compound 19, 3-((E)-2-nitrovinyl) phenol]
MIC ([1]; ATCC90030): 16 µg/mL (≈ 96.9 µM) | MFC [1, 12]: 16 µg/mL (≈ 96.9 µM) | MIC ([2]; ATCC16424, broth microdilution, 35°C, 48 h, read-out: MIC, Af ATCC 16424): 64 µg/mL (≈ 388 µM) | MFC [2, 14]: > 64 µg/mL | MIC ([3]; ATCC90028, broth microdilution, 35°C, 48 h, read-out: MIC, Ca ATCC 90028): 64 µg/mL (≈ 388 µM) | MFC [3, 16]: > 64 µg/mL | MIC ([4]; ATCC16404, broth microdilution, 35°C, 48 h, read-out: MIC, An ATCC 16404): 64 µg/mL (≈ 388 µM) | MFC [4, 18]: 64 µg/mL (≈ 388 µM) | MIC ([5]; ATCC29213): > 64 µg/mL | MBC [5, 19]: > 64 µg/mL | MIC ([6]; ATCC14990, broth microdilution, 35°C, 24 h, read-out: MIC, Se ATCC 14990): 64 µg/mL (≈ 388 µM) | MBC [6, 21]: > 64 µg/mL | MIC ([7]; ATCC27853, broth microdilution, 35°C, 24 h, read-out: MIC, Pa ATCC 27853): > 64 µg/mL | MBC [7, 23]: > 64 µg/mL | MIC ([8]; ATCC25922, broth microdilution, 35°C, 24 h, read-out: MIC, Ec ATCC 25922): > 64 µg/mL | MBC [8, 25]: > 64 µg/mL

O=[N+]([O-])/C=C/c1c[nH]c2ccccc12 [Compound 28, 3-((E)-2-nitrovinyl)-1H-indole]
MIC ([1]; ATCC90030, 48 h): 16 µg/mL (≈ 85 µM) | MFC [1, 12]: 16 µg/mL (≈ 85 µM) | MIC [2, 13]: 16 µg/mL (≈ 85 µM) | MFC [2, 14]: 16 µg/mL (≈ 85 µM) | MIC [3, 15]: 32 µg/mL (≈ 170 µM) | MFC [3, 16]: 32 µg/mL (≈ 170 µM) | MIC [4, 17]: 8 µg/mL (≈ 42.5 µM) | MFC [4, 18]: 16 µg/mL (≈ 85 µM) | MIC ([5]; ATCC29213, 24 h): 64 µg/mL (≈ 340 µM) | MBC [5, 19]: > 64 µg/mL | MIC [6, 20]: 64 µg/mL (≈ 340 µM) | MBC [6, 21]: 64 µg/mL (≈ 340 µM) | MIC [7, 22]: > 64 µg/mL | MBC [7, 23]: > 64 µg/mL | MIC [8, 24]: 64 µg/mL (≈ 340 µM) | MBC [8, 25]: > 64 µg/mL
